Source: patent US20030181436A1, “Treatment for AIDS, HIV, and other related diseases and compounds for use therewith” (priority 2001, published 2003)

Columns and labels:
Assay type in all cases: cell-based
[1] = tested on: HIV RoJo (a clinical isolate); assay: Chronically infected PBMCs, supernatant reverse transcriptase activity
Experimental: (§1) Reverse transcriptase activity was measured in cell-free supernatants. Tritiated thymidine triphosphate (NEN) (TTP) was resuspended in distilled H2O at 5 Ci/mL. Poly rA and oligo dT were prepared as a stock solution which was kept at −20° C. The RT reaction buffer was prepared fresh on a daily basis and consists of 125 μL 1.0 M EGTA, 125 μL dH2O, 110 μL 10% SDS, 50 μL 1.0 M Tris (pH 7.4), 50 μL, 1.0 M DTT, and 40 μL 1.0 M MgCl2. These three solutions were mixed together in a ratio of 2 parts TTP, 1 part poly rA:oligo dT, and 1 part reaction buffer. Ten microliters of this reaction mixture was placed in a round bottom microtiter plate and 15 μL of virus containing supernatant was added and mixed. The plate was incubated at 37° C. in a water bath with a solid support to prevent submersion of the plate and incubated for 60 minutes. Following reaction, the reaction volume was spotted onto pieces of DE81 paper, washed 5 times for 5 minutes each in a 5% sodium phosphate buffer, 2 times for 1 minute each in distilled water, 2 times for 1 minute each in 70% ethanol, and then dried. Opti-Fluor O was added to each sample and incorporated radioactivity was quantitated utilizing a Wallac 1450 Microbetaplus liquid scintillation counter.
In these studies PBMCs are infected with HIV RoJo (a clinical isolate) and a dynamic population of infected PBMCs established over a period of 2 to 3 weeks. This population of infected PBMCs was established and maintained by the addition of fresh PBMCs in a 1:1 ratio every 7 days, thus overcoming the lost of PBMCs to normal cell death processes. Thus a population of cells was established that consisted of uninfected cells, short lived infected cells and long lived infected cells. In experiments where AZT was added to prevent re-infection of the population, we typically saw a 50% reduction in infection following a 7 day treatment. This means that 50% of the virus production from the infected […] population was due re-infection. […] Thus there was a population of infected PBMCs present ([…] of the total) which survived for extended periods of time and thus met the definition of being chronically infected.

U1 cells = assay: U1 assay, compound toxicity by MTS dye reduction; conditions: exp 2
Experimental: At assay termination the assay plates were stained with the soluble tetrazolium-based dye MTS (CellTiter® Reagent, Promega) to determined cell viability and quantify compound toxicity. […] At termination of the assay 20 μL of MTS reagent was added per well. The wells were incubated for 4 h at 37° C., 5% CO2. Adhesive plate scalers were used in place of the lids, the sealed plate was inverted several times to mix the soluble formazan product and the plate was read spectrophotometrically at 490 nm with a 650 nm reference wavelength on a Molecular Devices Vmax plate reader.
(§2) U1 and ACH-2 cells were obtained from the AIDS Research and Reference Reagent Program and maintained under standard culture conditions in RPMI 1640 supplemented with 10% fetal bovine serum (heat inactivated), supplemented with 2 mM […], 100U/ml penicillin and 100 μg/ml, streptomycin. U1 cells were derived from the histocytic leukemia cell line U937, and contain a single integrated copy (HIV IIIB) […] a cytokine and/or phorbol inducible provirus. ACH-2 cells are derived from the A3.01 T lymphoblastic cell line, and contain 2 copies of the HIV IIIB provirus, however only one is cytokine and/or phorbol inducible. Cultures were maintained in such a way as to ensure exponential growth of the populations. At the time of the assay, cells were collected by centrifugation and counted by hemacytometer. If cell viability by Trypan Blue dye exclusion was less than 70% the assay was terminated. The cells were adjusted to 5×10^4 cells/mL and 100 μL, placed in 96 well plates with 100 μL media containing a final concentration of […] TNFα and the test compound. Cultures were incubated for 3 days and supernatants harvested. Compound toxicity was determined by MTS dye reduction. Virus expression was measured by supernatant reverse transcriptasc activity.

[2] = tested on: TNFα induced U1 cells (HIV IIIB provirus); assay: U1 latent infection assay, supernatant reverse transcriptase activity; conditions: exp 2
Experimental: as §2, §1

Substance: Potassium Iodiscorbate [Compound K]
- Percent Control by Supernatant Reverse Transcriptase activity ([1]; Day 7, 1 μg/ml): 94 Percent Control
- Percent Control by Supernatant Reverse Transcriptase activity ([1]; Day 7, 5 μg/ml): 87 Percent Control
- Percent Control by Supernatant Reverse Transcriptase activity ([1]; Day 7, 10 μg/ml): 92 Percent Control
- Percent Control by Supernatant Reverse Transcriptase activity ([1]; Day 7, 25 μg/ml): 84 Percent Control
- Percent Control by Supernatant Reverse Transcriptase activity ([1]; Day 7, 50 μg/ml): 70 Percent Control
- Percent Control by Supernatant Reverse Transcriptase activity ([1]; Day 7, 100 μg/ml): 34 Percent Control
- Percent Control by Supernatant Reverse Transcriptase activity ([1]; Day 14, 1 μg/ml): 94 Percent Control
- Percent Control by Supernatant Reverse Transcriptase activity ([1]; Day 14, 5 μg/ml): 57 Percent Control
- Percent Control by Supernatant Reverse Transcriptase activity ([1]; Day 14, 10 μg/ml): 66 Percent Control
- Percent Control by Supernatant Reverse Transcriptase activity ([1]; Day 14, 25 μg/ml): 65 Percent Control
- Percent Control by Supernatant Reverse Transcriptase activity ([1]; Day 14, 50 μg/ml): 56 Percent Control
- Percent Control by Supernatant Reverse Transcriptase activity ([1]; Day 14, 100 μg/ml): 75 Percent Control
- Percent Control by Supernatant Reverse Transcriptase activity ([1]; da 21, 1 μg/ml): 90 Percent Control
- Percent Control by Supernatant Reverse Transcriptase activity ([1]; da 21, 5 μg/ml): 77 Percent Control
- Percent Control by Supernatant Reverse Transcriptase activity ([1]; da 21, 10 μg/ml): 74 Percent Control
- Percent Control by Supernatant Reverse Transcriptase activity ([1]; da 21, 25 μg/ml): 63 Percent Control
- Percent Control by Supernatant Reverse Transcriptase activity ([1]; da 21, 50 μg/ml): 46 Percent Control
- Percent Control by Supernatant Reverse Transcriptase activity ([1]; da 21, 100 μg/ml): 50 Percent Control
- IC50 in chronically infected PBMCs ([1]; day 7): 68 µg/mL
- % CC (U1 cells; 0.00063 μM): 118.9%
- TOXICITY VALUES (MTS) MEAN (U1 cells; 0.00063 μM): 1.546 O. D.
- % CC (U1 cells; 0.002 μM): 119.4%
- TOXICITY VALUES (MTS) MEAN (U1 cells; 0.002 μM): 1.553 O. D.
- % CC (U1 cells; 0.00625 μM): 97.8%
- TOXICITY VALUES (MTS) MEAN (U1 cells; 0.00625 μM): 1.271 O. D.
- % CC (U1 cells; 0.0625 μM): 94.0%
- TOXICITY VALUES (MTS) MEAN (U1 cells; 0.0625 μM): 1.222 O. D.
- % CC (U1 cells; 0.2 μM [c7]): 84.8%
- TOXICITY VALUES (MTS) MEAN (U1 cells; 0.2 μM [c7]): 1.103 O. D.
- % CC (U1 cells; 0.2 μM [c9]): 101.5%
- TOXICITY VALUES (MTS) MEAN (U1 cells; 0.2 μM [c9]): 1.320 O. D.
- % CC (U1 cells; 0.625 μM): 93.4%
- TOXICITY VALUES (MTS) MEAN (U1 cells; 0.625 μM): 1.214 O. D.
- % CC (U1 cells; 2 μM): 89.1%
- TOXICITY VALUES (MTS) MEAN (U1 cells; 2 μM): 1.158 O. D.
- % CC (U1 cells; 6.25 μM): 83.3%
- TOXICITY VALUES (MTS) MEAN (U1 cells; 6.25 μM): 1.083 O. D.
- % CC (U1 cells; 20 μM): 70.3%
- TOXICITY VALUES (MTS) MEAN (U1 cells; 20 μM): 0.913 O. D.
- % CC (U1 cells; 62.5 μM): 80.8%
- TOXICITY VALUES (MTS) MEAN (U1 cells; 62.5 μM): 1.050 O. D.
- % CC (U1 cells; 200 μM): 26.3%
- TOXICITY VALUES (MTS) MEAN (U1 cells; 200 μM): 0.341 O. D.
- % VC ([2]; 0.00063 μM): 112.6%
- RT ACTIVITY (cpm) MEAN ([2]; 0.00063 μM): 3019 cpm
- % VC ([2]; 0.002 μM): 118.4%
- RT ACTIVITY (cpm) MEAN ([2]; 0.002 μM): 3174 cpm
- % VC ([2]; 0.00625 μM): 111.5%
- RT ACTIVITY (cpm) MEAN ([2]; 0.00625 μM): 2989 cpm
- % VC ([2]; 0.02 μM): 98.4%
- RT ACTIVITY (cpm) MEAN ([2]; 0.02 μM): 2640 cpm
- % VC ([2]; 0.0625 μM): 107.1%
- RT ACTIVITY (cpm) MEAN ([2]; 0.0625 μM): 2872 cpm
- % VC ([2]; 0.2 μM): 110.0%
- RT ACTIVITY (cpm) MEAN ([2]; 0.2 μM): 2949 cpm
- % VC ([2]; 0.625 μM): 68.1%
- RT ACTIVITY (cpm) MEAN ([2]; 0.625 μM): 1826 cpm
- % VC ([2]; 2 μM): 81.7%
- RT ACTIVITY (cpm) MEAN ([2]; 2 μM): 2191 cpm
- % VC ([2]; 6.25 μM): 73.2%
- RT ACTIVITY (cpm) MEAN ([2]; 6.25 μM): 1962 cpm
- % VC ([2]; 20 μM): 45.3%
- RT ACTIVITY (cpm) MEAN ([2]; 20 μM): 1216 cpm
- % VC ([2]; 62.5 μM): 29.07%
- RT ACTIVITY (cpm) MEAN ([2]; 62.5 μM): 779 cpm
- % VC ([2]; 200 μM): 17.50%
- RT ACTIVITY (cpm) MEAN ([2]; 200 μM): 469 cpm
